Results on eleven compounds are retold here after ChEMBL document CHEMBL1156354, “Anti-AIDS agents. 48.(1) Anti-HIV activity of moronic acid derivatives and the new melliferone-related triterpenoid isolated from Brazilian propolis” (J Nat Prod, 2001).

The nature of series [1]: Therapeutic index, ratio of IC50 for human H9 cells to EC50 of HIV1 3B. The series is classed as cell-based. The conditions noted are these: for selectivity ratio: H9 cells, HIV-1 3B, read-out: Ratio IC50/EC50; for Ratio IC50/EC50: h9.
For a further series, the system named is H9. Put plainly: Cytotoxicity against human H9 cells. The format is cell-based.
The subject of series [2] is Human immunodeficiency virus 1. Put plainly: Antiviral activity against HIV1 3B infected in human H9 cells assessed as inhibition of viral p24 antigen levels after 4 days by ELISA. The series is classed as functional, organism-based. For orientation: ELISA stands for enzyme-linked immunosorbent assay.
Setting [3] is: Human immunodeficiency virus 1, 3B, H9, 96 h, read-out: EC50.

In brackets after ≈: the same amount, converted by molar mass. Some results are limits rather than exact numbers.

Turning to `CC1(C)C=C2[C@H]3CC[C@@H]4[C@@]5(C)CC[C@H](OC(=O)CC(C)(C)C(=O)O)C(C)(C)[C@@H]5CC[C@@]4(C)[C@]3(C)CC[C@@]2(C(=O)O)CC1`, the selectivity ratio in series [1] is 18. Besides, the IC50 (usually the point on the concentration scale where inhibition reaches its midpoint) in the series with H9 was 18.1 µg/mL (≈ 30.9 µM). The EC50 (as a rule, the concentration at which the effect is half-maximal) in series [2] (setting [3]) worked out at 1 µg/mL (≈ 1.71 µM).
Regarding `CCC(=O)c1ccc(O)c(OC)c1`, the “Ratio IC50/EC50” value in series [1] is “Not Active”. The compound further yielded an IC50 in the series with H9 of 18.8 µg/mL (≈ 104 µM). The EC50 result in series [2] (h9) was “Not Active”.
`C=C(COC(C)=O)[C@H]1Cc2cc(C(C)=O)ccc2O1`: the “Ratio IC50/EC50” value in series [1] is “Not Active”. This compound registered an IC50 with H9 of 2.07 µg/mL (≈ 7.95 µM). In addition, in series [2] (h9), the EC50 result is “Not Active”.
For `COc1ccc(/C=C/C=O)cc1OC` [3,4-DIMETHOXY CINNAMALDEHYDE], in series [1], the selectivity ratio was determined as 8.62. In the series with H9, this compound displayed an IC50 of 18.9 µg/mL (≈ 98.3 µM). Moreover, the EC50 in series [2] (setting [3]) was found to be 2.19 µg/mL (≈ 11.4 µM).
For the compound `C/C(=C/CC[C@@H](C)[C@H]1CC[C@@]2(C)C3=C(CC[C@]12C)[C@@]1(C)CCC(=O)C(C)(C)[C@@H]1CC3)C(=O)O` [ANWUWEIZONIC ACID], the “Ratio IC50/EC50” value in series [1] is “Not Active”. This compound returned an IC50 in the series on H9 of 2.14 µg/mL (≈ 4.71 µM). Moreover, the EC50 entry in series [2] (h9) was “Not Active”.
As to `C=C(C)[C@@H]1CC[C@]2(C(=O)O)CC[C@]3(C)[C@H](CC[C@@H]4[C@@]5(C)CCC(=O)C(C)(C)[C@@H]5CC[C@]43C)[C@@H]12` [BETUNOLIC ACID], the selectivity ratio in series [1] was 8. This compound had an IC50 in the series with H9 of 1.8 µg/mL (≈ 3.96 µM). Further, in series [2] (setting [3]), the EC50 was determined as 0.22 µg/mL (≈ 0.484 µM).
Regarding `CC1(C)CC[C@@]23CC[C@]4(C)[C@@](C=C[C@@H]5[C@@]6(C)CCC(=O)C(C)(C)[C@@H]6CC[C@]54C)(OC2=O)[C@@H]3C1` [MELLIFERONE], the “Ratio IC50/EC50” value in series [1] is “Not Active”. The compound also had an IC50 in the series on H9 of 0.205 µg/mL (≈ 0.453 µM). Besides, in series [2] (h9), the half-maximal effective concentration (EC50) entry is “Not Active”.
Regarding `CC1(C)C=C2[C@H]3CC[C@@H]4[C@@]5(C)CC[C@H](O)C(C)(C)[C@@H]5CC[C@@]4(C)[C@]3(C)CC[C@@]2(C(=O)O)CC1` [MOROLIC ACID], the selectivity ratio in series [1] is 8.17. Also, inhibition in the series on H9 was half-maximal at 22.1 µg/mL (≈ 48.4 µM) (IC50). Besides, the EC50 in series [2] (setting [3]) was 2.7 µg/mL (≈ 5.91 µM).
Regarding `CC1(C)C=C2[C@H]3CC[C@@H]4[C@@]5(C)CCC(=O)C(C)(C)[C@@H]5CC[C@@]4(C)[C@]3(C)CC[C@@]2(C(=O)O)CC1` [MORONIC ACID], the selectivity ratio in series [1] was greater than 186. The midpoint of inhibition in the series with H9, the IC50, lay at 18.6 µg/mL (≈ 40.9 µM). The EC50 in series [2] (setting [3]) is less than 0.1 µg/mL.
For `COc1cc(C=O)ccc1O` [VANILLIN], the “Ratio IC50/EC50” value in series [1] is reported as “Not Active”. Moreover, in the series with H9, the IC50 is greater than 100 µg/mL. In addition, the EC50 result in series [2] (h9) is listed as “Not Active”.
For the compound `Cc1cn([C@H]2C[C@H](N=[N+]=[N-])[C@@H](CO)O2)c(=O)[nH]c1=O` [ZIDOVUDINE], the half-maximal effective concentration (EC50) in series [2] (setting [3]) worked out at 0.00289 µg/mL (≈ 0.0108 µM).
